Test results: US20250059139A1, “COMPOUNDS FOR TREATMENT OF CANCER” (THE JOHNS HOPKINS UNIVERSITY, priority 2021, published 2025)

Tests used:
[1] = molecular target: T1, Human Aryl Hydrocarbon Receptor (AHR) (Homo sapiens, UniProt P35869); assay: Human AHR reporter assay (cell-based  luciferase reporter gene assay); conditions: n = 4 independent assays/analog; read-out: AHR Agonist Response [EC50] (nM +/−SD)
T1 construct: purchased Indigo Biosciences IB06001
T1 sequence (P35869 11-848): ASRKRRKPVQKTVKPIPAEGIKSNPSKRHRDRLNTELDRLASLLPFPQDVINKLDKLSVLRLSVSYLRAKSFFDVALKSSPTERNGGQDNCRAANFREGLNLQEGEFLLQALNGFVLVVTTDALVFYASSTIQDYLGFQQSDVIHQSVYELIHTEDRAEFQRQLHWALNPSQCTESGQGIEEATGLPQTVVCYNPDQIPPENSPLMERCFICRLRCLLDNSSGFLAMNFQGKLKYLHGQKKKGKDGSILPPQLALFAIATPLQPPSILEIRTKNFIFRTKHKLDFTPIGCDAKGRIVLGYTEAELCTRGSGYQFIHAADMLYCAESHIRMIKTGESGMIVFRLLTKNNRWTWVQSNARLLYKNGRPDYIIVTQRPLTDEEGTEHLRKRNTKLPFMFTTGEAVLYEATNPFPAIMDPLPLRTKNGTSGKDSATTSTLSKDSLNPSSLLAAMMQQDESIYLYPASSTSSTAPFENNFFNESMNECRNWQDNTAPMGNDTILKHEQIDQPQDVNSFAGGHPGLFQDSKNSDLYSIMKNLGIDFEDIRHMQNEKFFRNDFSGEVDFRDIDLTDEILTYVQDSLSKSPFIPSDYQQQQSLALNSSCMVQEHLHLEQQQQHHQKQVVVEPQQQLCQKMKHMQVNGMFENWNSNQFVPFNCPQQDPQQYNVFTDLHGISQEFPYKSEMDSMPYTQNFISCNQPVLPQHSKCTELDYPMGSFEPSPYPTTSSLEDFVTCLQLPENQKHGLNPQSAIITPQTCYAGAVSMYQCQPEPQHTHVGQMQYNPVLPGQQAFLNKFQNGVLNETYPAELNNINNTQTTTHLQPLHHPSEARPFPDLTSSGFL
Text: AHR Agonist Assay. Human Aryl Hydrocarbon Receptor (AHR) Reporter Assay System [Indigo Biosciences (State College, Pa) Cat #IB06001] was used as per the manufacturer's protocol.

[2] = system: CWR22-RH human prostate cancer PDXs; assay: In vivo growth of CWR22-RH xenografts in castrate NSG male mice; conditions: for CWR22-RH Tumor Growth (% inhibition +/− SD): castrate mice treated orally over a 3 week period, 10 mg/kg/d, n = 5/group; for growth inhibitor (GI) activity on CWR22-RH xenografts (SAR summary): in vivo
Text: Prostate Cancer Models. The source, history, and characteristics of the human prostate cancer cell lines and PDXs used, as well as cell culture conditions for their in vitro maintenance and the in vivo protocol for xenograft growth in triple immune-deficient NSG (i.e. NOD.Cg-PrkdcScidIl2rgtmlWji/Szj), adult (>8 week old) male mice obtained from the Sidney Kimmel Comprehensive Cancer Center (SKCCC) Animal Core Facility are described previously (Isaacs 2013; Brennen et al. JCI Insight. 2021, 6(8):e146827; Zhu et al. Oncogene 2020, 39(45): 6935-6949). Similar information concerning the TRAMP-C2 and B6CaP mouse prostate cancers originating in a C57BL/6J male mice are described previously (Foster et al. Cancer Res. 1997, 57: 3325-3330; Simons et al. Oncotarget. 2019, 10(64):6845-6854). In vitro growth curves were determined as described (Isaacs 2013). In vivo growth response to oral daily TasQ (10 mg/kg/d) of TRAMP-C2 mouse prostate cancers was evaluated in C57BL/6J syngeneic wild type vs. NOX-2 vs. iNOS null male mice obtained from Jackson Laboratory (Bar Harbor, ME). Growth response to oral daily TasQ (10 mg/kg/d) of TRAMP-C2 and B6CaP mouse prostate cancers was also evaluated in S100A9 null C57BL′6J male mice obtained from Dmitry Gabrilovich (Wistar Institute). All lines were mycoplasma negative using the MycoSensor PCR Assay kit (Agilent Technologies) and genetically authenticated within the last 6 months using short tandem repeat profiling conducted by the Johns Hopkins Genetic Resource Core Facility. In vitro growth curves were determined as described (Isaacs 2013). Growth response to daily oral TasQ vs. ESATA-20 (both at 10 mg/kg/d) of Myc-CaP-CR mouse prostate cancer was evaluated in syngeneic FVB/NJ castrate male mice from Jackson Laboratory. Animal studies were conducted according to animal protocols approved by Johns Hopkins Animal Care and Use Committee. Tumor volume measurements were as described previously (id.). In vivo experiments were repeated multiple independent times for each model used with 3-5 mice per treatment grouping.
(§1) Oral Drug treatment. TasQ at the indicated dose was initially dissolved with equal molar 1 N sodium hydroxide. This solution was diluted with sterile water and the mixture stirred for 1 hr. The pH was then adjusted with 1 N HCl to 8.9 and 200 μL given daily via oral gavage.
Due to these combined effects, maximal growth inhibition of CWR22-RH, a castration-resistant prostate cancer patient-derived xenograft (PDX), is obtained as maintenance therapy with oral daily dosing of ≥5 mg/kg/d (FIG. 1). […] Previous studies documented that in vitro treatment of human prostate cancer cells (LNCaP) with 1-10 μM TasQ rapidly (i.e., ≤1 day) induces the transcription of a series of AHR target genes (e.g., Cyp1a1, Cyp1b1, AHRR, TPARP, GDF15) (Olsson 2010). […]

thymus = assay: AHR agonist induced thymus regression in FVB male mice; type: in vivo, mouse
Method: To evaluate AHR agonist induced thymus regression, groups of five 4-week old FVB male mice from Jackson Laboratory were treated with either vehicle, Linomide, TasQ, or its analogs daily by orally gavage for 2 weeks and then the thymus removed and weighted.
as §1
This means that in the clinical setting, dose-escalation above 1 mg/d of TasQ as needed to reach this >2 μM blood level for optimal anti-cancer efficacy will also enhance unwanted off-target AHR induction. Therefore, a medicinal chemical approach was undertaken to identify third generation quinoline-3-carboxamide analogs with increased HDAC4 inhibition, but with reduced AHR agonism. The approach taken is based upon the earlier SPR analysis documenting that TasQ linked to the surface chip via its aniline-N is a potent binder of HDAC4. Thus, a series of quinoline-3-carboxamide analogs were synthesized focusing upon adduct changes at the aniline-N. These analogs were synthesized as described in Example 1, and were initially screened for their AHR agonist activity using the in vitro human cell-based ARE-driven luciferase reporter gene assay (Table 3).

[3] = system: LvCaP-3 human prostate cancer PDXs; assay: In vivo growth of LvCaP-3 xenografts in castrate hosts; conditions: daily oral 10 mg/kg
Text: Prostate Cancer Models. The source, history, and characteristics of the human prostate cancer cell lines and PDXs used, as well as cell culture conditions for their in vitro maintenance and the in vivo protocol for xenograft growth in triple immune-deficient NSG (i.e. NOD.Cg-PrkdcScidIl2rgtmlWji/Szj), adult (>8 week old) male mice obtained from the Sidney Kimmel Comprehensive Cancer Center (SKCCC) Animal Core Facility are described previously (Isaacs 2013; Brennen et al. JCI Insight. 2021, 6(8):e146827; Zhu et al. Oncogene 2020, 39(45): 6935-6949). […] In vitro growth curves were determined as described (Isaacs 2013). In vivo growth response to oral daily TasQ (10 mg/kg/d) of TRAMP-C2 mouse prostate cancers was evaluated in C57BL/6J syngeneic wild type vs. NOX-2 vs. iNOS null male mice obtained from Jackson Laboratory (Bar Harbor, ME). Growth response to oral daily TasQ (10 mg/kg/d) of TRAMP-C2 and B6CaP mouse prostate cancers was also evaluated in S100A9 null C57BL′6J male mice obtained from Dmitry Gabrilovich (Wistar Institute). […] In vitro growth curves were determined as described (Isaacs 2013). Growth response to daily oral TasQ vs. ESATA-20 (both at 10 mg/kg/d) of Myc-CaP-CR mouse prostate cancer was evaluated in syngeneic FVB/NJ castrate male mice from Jackson Laboratory. […]

mCRPC patients = conditions: human, in vivo; cited from earlier work
fl-HDAC4 (wild-type) = molecular target: T2, fl-HDAC4 (wild-type) (Homo sapiens, UniProt P56524); assay: SPR binding analysis TasQ / fl-HDAC4; conditions: compound at >30 μM in solution, Zn2+ present
T2 construct: Full-length (fl) [A.A. 1-1082] recombinant human histone deacetylase 4 (rhHDAC4) protein; FLAG (N); GST (given as 'with or without'); made in house; host or cells: HEK293-T
Method: Surface Plasmon Resonance (SPR) Binding Analysis. SPR analysis was performed on the Biacore 3000™ system using CM5 sensor chips, certified buffers (HBS-P—10 mM HEPES, 0.15 M NaCl, pH 7.4, containing 0.005% v/v Surfactant P; HBS-EP-HBS-P with 3 mM EDTA) and reagents for immobilization and surface regeneration from Biacore, GE Healthcare, Uppsala Sweden. Evaluation of sensorgrams was performed using the BIA-evaluation Software version 4.1 and GraphPad Prism 4. Buffer of protein reagents were changed to HBS-P on Zeba spin desalting columns (Thermo Scientific) prior to being used in SPR analysis (Isaacs 2013).
A. Binding of wild-type and mutant forms of HDAC4 to immobilized TasQ. TasQ (ABR-215050; mol wt 406.4) was dissolved as a 40 mM solution in water with 1.5 equivalents of NaOH. TasQ with an amino-linker [i.e. —(CH2)2O(CH2)2—NH2](ABR-225180) in amide nitrogen position was used for amine coupling on to a Biacore CM5 sensor chip. A 1 mg/mL solution of ABR-225180 in HBS-P buffer was prepared and immobilized on a CM5 chip by injection at a flow rate of 5 or 10 μL/min until a stable response level was reached. Interaction of various HDAC4 forms with immobilized TasQ was studied by injection over this surface in HBS-P buffer containing 10 or 20 μM ZnCl2. Bound HDAC4 was removed by a pulse of 3 mM EDTA in HBS-P or 0.5 to 6.25 mM NaOH in water. In a second series of experiments, the ability of TasQ in solution to displace this binding was studied by pre-incubation of HDAC4 with TasQ as competitor.
B. Binding of TasQ to immobilized HDAC4 and NCoR1. Different variants of HDAC4 (full-length wild-type and mutant forms and the truncated protein) and full-length NCoR1 were immobilized on a CM5 chip using random amine coupling. Briefly, proteins were dissolved in 10 mM sodium acetate buffer at pH 5.0 or 5.5 and immobilized to the aimed level using the standard protocol from GE Healthcare. Serially diluted TasQ in HBS-P buffer with 10 or 20 μM Zn was injected (for 2 or 3 min at a flow rate of 30 μl/min) either directly or after a 1st injection of 1 mM DTT to reduce cysteines in the zinc conformation site in HDAC4. Regeneration was made with a short pulse of HBS-EP.
To evaluate the conformational requirements for TasQ's binding to HDAC4, surface plasmon resonance (SPR) analysis was utilized. To maximize conformational flexibility, TasQ is immobilized onto the surface of a Biacore CM5 sensor chip via an amino-linker [i.e. —(CH2)2—O—(CH2)2—NH2] in its amide nitrogen position.
By comparison, Linomide even at >30 μM in solution binds only 10-15% of the immobilized fl-HDAC4 protein despite the presence of Zn^+2 (FIG. 14). […] The fact that the KD for binding of soluble TasQ to immobilized fl-HDAC4 is higher than the KD for binding of soluble fl-HDAC4 with immobilized TasQ is predictable. This is because the conformational dynamics of fl-HDAC4 protein immobilized on the chip are more restrictive due to the multiple random amine coupling than the conformational dynamics of TasQ immobilized via a single amino-linker.
To address this possibility, a competitive binding assay was developed based upon the ability of TasQ in solution to compete with immobilized TasQ on the SPR-chip for binding to fl-HDAC4.

T2 sequence (P56524 whole entry): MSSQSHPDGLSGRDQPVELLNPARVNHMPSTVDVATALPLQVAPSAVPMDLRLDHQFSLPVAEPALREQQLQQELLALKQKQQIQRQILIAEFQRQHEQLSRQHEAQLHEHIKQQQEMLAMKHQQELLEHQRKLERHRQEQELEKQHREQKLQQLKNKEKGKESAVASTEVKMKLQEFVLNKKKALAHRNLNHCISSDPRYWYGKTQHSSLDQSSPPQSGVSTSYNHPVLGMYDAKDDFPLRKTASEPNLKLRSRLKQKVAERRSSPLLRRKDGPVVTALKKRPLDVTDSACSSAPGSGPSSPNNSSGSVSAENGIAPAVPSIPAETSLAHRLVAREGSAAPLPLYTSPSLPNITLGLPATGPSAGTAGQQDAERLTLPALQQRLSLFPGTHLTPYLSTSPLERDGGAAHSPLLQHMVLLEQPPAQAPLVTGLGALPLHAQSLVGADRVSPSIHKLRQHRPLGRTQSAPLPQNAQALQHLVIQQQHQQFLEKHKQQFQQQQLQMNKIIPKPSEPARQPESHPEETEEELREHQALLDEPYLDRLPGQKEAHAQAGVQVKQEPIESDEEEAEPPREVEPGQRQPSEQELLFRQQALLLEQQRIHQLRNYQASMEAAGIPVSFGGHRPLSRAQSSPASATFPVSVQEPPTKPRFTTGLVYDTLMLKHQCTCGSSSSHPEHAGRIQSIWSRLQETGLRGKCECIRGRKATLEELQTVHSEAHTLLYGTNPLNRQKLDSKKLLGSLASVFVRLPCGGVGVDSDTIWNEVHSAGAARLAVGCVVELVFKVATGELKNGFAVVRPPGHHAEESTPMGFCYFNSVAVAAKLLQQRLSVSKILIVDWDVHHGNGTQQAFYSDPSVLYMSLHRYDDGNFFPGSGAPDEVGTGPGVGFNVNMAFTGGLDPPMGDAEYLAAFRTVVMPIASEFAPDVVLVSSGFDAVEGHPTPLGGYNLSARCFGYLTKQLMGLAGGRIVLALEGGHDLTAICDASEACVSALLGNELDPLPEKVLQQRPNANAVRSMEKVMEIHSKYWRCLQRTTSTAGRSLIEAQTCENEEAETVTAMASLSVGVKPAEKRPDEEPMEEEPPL

SMILES | EC50 [1] [nM] | CWR22-RH Tumor Growth (% inhibition +/− SD) [2] | growth inhibitor (GI) activity on CWR22-RH xenografts (SAR summary) [2] | other results
C[C@]12CC[C@H](O)CC1=CC[C@@H]1[C@@H]2CC[C@]2(C)C(c3cccnc3)=CC[C@@H]12 [Abiraterone] | > 50000 | <10% |  | 
c1ccc2c(c1)cc1ccc3cccc4ccc2c1c34 [Benzo[α]pyrene, benzo[a]pyrene] |  | <10% |  | thymus weight (thymus; 10 mg/kg/d oral for 14 days): 27 ± 8 mg; Thymus Regression (% decrease weight +/− SD) (thymus; mice treated orally for 2 weeks, 10 mg/kg/d, n = 5/group): 51 +/− 7%; inhibition of growth of LvCaP-3 xenografts at the end of study [3]: completely lacks therapeutic efficacy
COC(=O)c1c(O)c2c(OC)cccc2n(C)c1=O [ESATA-2] | > 100000 |  | no GI activity | 
COc1cccc2c1c(O)c(C(=O)Nc1ccc(C(F)(F)F)cc1)c(=O)n2C [ESATA-4] | 0.5 | 86 +/− 9% | high GI activity | 
COc1cccc2c1CC(C(=O)N(C)c1ccc(C(F)(F)F)cc1)C(=O)N2C (stereo not shown) [ESATA-5] | 300 |  |  | 
CCCCCCCN(C(=O)c1c(O)c2c(OC)cccc2n(C)c1=O)c1ccc(C(F)(F)F)cc1 [ESATA-11] | 50 |  |  | 
COc1cccc2c1c(O)c(C(=O)N(CCOCc1ccccc1)c1ccc(C(F)(F)F)cc1)c(=O)n2C [ESATA-14] | 1100 | <10% | no GI activity | 
COc1cccc2c1c(O)c(C(=O)N(Cc1ccccc1)c1ccc(C(F)(F)F)cc1)c(=O)n2C [ESATA-18] | 10700 | 50 +/− 18% |  | 
COc1cccc2c1c(O)c(C(=O)N(c1ccc(C(F)(F)F)cc1)C1CCC(C(F)(F)F)CC1)c(=O)n2C (stereo not shown) [ESATA-22] | 12000 | <10% | no GI activity | 
COc1cccc2c1c(O)c(C(=O)N/N=C/c1ccc(C(F)(F)F)cc1)c(=O)n2C [ESATA-24] | 800 |  |  | 
CCOc1c(C(=O)N(c2ccc(C(F)(F)F)cc2)C2CCCCC2)c(=O)n(C)c2cccc(OC)c12 [ESATA-25] | 10500 | <10% | no GI activity | 
COc1cccc2c1c(OCCNC(=O)OC(C)(C)C)c(C(=O)N(c1ccc(C(F)(F)F)cc1)C1CCCCC1)c(=O)n2C [ESATA-26] | > 50000 | <10% | no GI activity | 
COc1cccc2c1c(O)c(C(=O)N(c1ccccc1)C(C)C)c(=O)n2C [ESATA-27] | 850 | <10% |  | 
COc1cccc2c1c(O)c(C(=O)N(c1ccccc1)C1CCCCC1)c(=O)n2C [ESATA-28] | 1300 | <10% |  | 
COc1cccc2c1c(O)c(C(=O)N(c1ccc(C(F)(F)F)cc1)C(C)C)c(=O)n2C [ESATA-30] | 1400 | <10% | no GI activity | 
CN(C(=O)c1c(O)c2ccccc2n(C)c1=O)c1ccccc1 [Linomide, roquinimex] |  |  |  | adverse events in Phase III clinical trials (mCRPC patients): several cases of pericarditis and neuropathy; fraction of the immobilized fl-HDAC4 protein bound (fl-HDAC4 (wild-type)): 10-15%
